Results taken from patent US8741946B2, “Inhibitors of flaviviridae viruses” (priority 2011, dated 2014).
Like-named read-outs stand apart in the source and are kept apart here.

Legend:
HCV replicon = HCV replicon assay in Huh-7 cells (luciferase); type: cell-based; conditions: Hepatitis C virus, 72 h; Huh-7 HCV replicon cells, 3 days incubation, luciferase readout; read-out: Wild-type EC50
Description: The anti-HCV activity of the compounds of this invention was tested in a human hepatoma Huh-7 cell line harboring a HCV replicon. The assay comprised the following steps:
Serial dilution was performed in 100% DMSO in a 384-well plate. A solution containing a compound at 225-fold concentration of the starting final serial dilution concentration was prepared in 100% DMSO and 15 μL added to the pre-specified wells in column 3 or 13 of a polypropylene 384-well plate. The rest of the 384-well plate was filled with 10 μL100% DMSO except for columns 23 and 24, where 10 μL of 500 uM a HCV protease inhibitor (ITMN-191) in 100% DMSO was added. The HCV protease inhibitor was used a control of 100% inhibition of HCV replication. The plate was then placed on a Biomek FX Workstation to start the serial dilution. The serial dilution was performed for ten cycles of 3-fold dilution from column 3 to 12 or from column 13 to 22.
To each well of a black polypropylene 384-well plate, 90 μL of cell media containing 1600 suspended Huh-7 HCV replicon cells was added with a Biotek uFlow Workstation. A volume of 0.4 μL of the compound solution was transferred from the serial dilution plate to the cell culture plate on a Biomek FX Workstation. The DMSO concentration in the final assay condition was 0.44%. The plates were incubated for 3 days at 37° C. with 5% CO2 and 85% humidity.
a) Assessment of cytotoxicity: The media in the 384-well cell culture plate was aspirated with a Biotek EL405 plate-washer. A volume of 50 μL of a solution containing 400 nM Calcein AM in 100% PBS was added to each well of the plate with a Biotek uFlow Workstation. The plate was incubated for 30 minutes at room temperature before the fluorescence signal ([…]) was measured with a Perkin Elmer Envision Plate Reader.
b) Assessment of inhibition of viral replication: The calcein-PBS solution in the 384-well cell culture plate was aspirated with a Biotek EL405 plate-washer. A volume of 20 μL of Dual-Glo luciferase buffer (Promega, Dual-Glo Luciferase Assay Reagent, cat. #E298B) was added to each well of the plate with a Biotek uFlow Workstation. The plate was incubated for 10 minutes at room temperature. A volume of 20 μL of a solution containing 1:100 mixture of Dual-Glo Stop & Glo substrate (Promega, Dual-Glo Luciferase Assay Reagent, cat. #E313B) and Dual-Glo Stop & Glo buffer (Promega, Dual-Glo Luciferase Assay Reagent, cat. #E314B) was then added to each well of the plate with a Biotek uFlow Workstation. The plate was incubated at room temperature for 10 minutes before the luminescence signal was measured with a Perkin Elmer Envision Plate Reader.
The percent cytotoxicity was determined by calcein AM conversion to fluorescent product. The average fluorescent signal from the DMSO control wells were defined as 100% nontoxic. The individual fluorescent signal from testing compound treated well was divided by the average signal from DMSO control wells and then multiplied by 100% to get the percent viability. The percent anti-HCV replication activity was determined by the luminescence signal from the testing well compared to DMSO controls wells. The background signal was determined by the average luminescence signal from the HCV protease inhibitor treated wells and was subtracted from the signal from the testing wells as well as the DMSO control wells. Following 3-fold serial dilutions, the EC50 and CC50 values were calculated by fitting % inhibition at each concentration to the following equation: % inhibition=100%/[(EC50/[I])^b+1]
Where b is Hill's coefficient. See, for reference, Hill, A. V., The Possible Effects of the Aggregation of the Molecules of Hemoglobin on its Dissociation Curves, J. Physiol. 40: iv-vii. (1910).
% inhibition values at a specific concentration, for example 2 μM, can also be derived from the formula above.

[1] = biological target: T1, wild-type NS5B (amino acids 1-570; GT-1b) (Hepatitis C virus genotype 1b, UniProt Q9WMX2); assay: Surface Plasmon Resonance binding affinity to wild-type NS5B; set-up: species or system HCV GT-1b
T1 construct: 21 residue C-terminal truncated forms of the NS5b protein (amino acids 1-570); GT-1b; made in house
Text: (§1) Compounds with minimal fold difference in binding affinity may have particular clinical utility.
(§2) In vitro studies with NS5B employed soluble, 21 residue C-terminal truncated forms of the NS5b protein (amino acids 1-570; GT-1b; wild-type and mutant M423T. See Hung, M., Wang, R., Liu, X.: ‘Preparation of HCV NS3 and NS5B to support small molecule drug discovery’, Current Protocols in Pharmacology, 2011, in press). Surface Plasmon Resonance (SPR) was used to measure the binding affinity of compounds described herein to the protein constructs. Standard amine coupling was employed to link the protein to the surface of a Biacore CM5 sensor chip using 10 mM sodium acetate pH 5.5 buffer to an immobilization level of ˜2500 RU. Experiments were performed using a Biacore T100 system at 25° C. in running buffer (50 mM Hepes pH 7.5, 5 mM MgCl2, […], 1 mM EDTA, 1 mM TCEP, 0.01% P20, 5% DMSO). Compounds were tested in a 3-fold concentration dilution series for 8 concentrations starting at 162 nM, using an association phase of 60 seconds and dissociation phase of 5 minutes at a flow rate of 100 μl min^−1. At the end of each binding cycle, a 3-second injection of a buffer (10 mM disodium tetraborate, 1M NaCl, pH8.5) at 40 μl min^−1 was used as a regeneration step to remove compounds still bound to the NS5B surface. Response data were processed using the following procedure: injections aligned in X and Y directions, double referenced using both a reference surface and buffer injections, and DMSO correction for excluded volume effects. Processed data were analyzed using non-linear least squares analysis with a global fit of a 1:1 binding model with mass transport.

[2] = test system: NS5B mutant M423T (amino acids 1-570; GT-1b); assay: Surface Plasmon Resonance binding affinity to M423T NS5B; set-up: species or system HCV GT-1b; conditions: M423T KD versus wild-type KD
Text: as §1, §2

[3] = biological target: T2, NS5B mutant M423T (amino acids 1-570; GT-1b) (Hepatitis C virus genotype 1b, UniProt Q9WMX2, M2842T); assay: as above; set-up: species or system HCV GT-1b
T2 construct: 21 residue C-terminal truncated forms of the NS5b protein (amino acids 1-570); GT-1b; made in house
Text: as §1, §2

[4] = test system: genotype 1b (Con-1 strain) HCV replicon, wild-type; assay: Transient transfection replicon assay, wild-type PI-hRluc replicon in Huh-lunet cells; type: cell-based, HCV genotype 1b (Con-1 strain); conditions: Hepatitis C virus, 72 h, wild-type genotype 1b PI-hRluc replicon, three days
[5] = test system: genotype 1b (Con-1 strain) HCV replicon with NS5B M423T mutation; assay: Transient transfection replicon assay, NS5B M423T mutant PI-hRluc replicon in Huh-lunet cells; type: cell-based, HCV genotype 1b (Con-1 strain); conditions: Hepatitis C virus, 72 h, read-out: Replicon transient transfection EC50 M423T
[6] = SPR, Biacore T100, 25° C., wild-type NS5B, read-out: Wild-type KD

Structure (SMILES)	EC50 (HCV replicon) [nM]	Kd [1, 6] [nM]	Fold difference [2]	Kd [3] [nM]	EC50 [4] [nM]	EC50 [5] [nM]	Kd [1] [nM]
CC1=CC[C@H](C(=O)N(c2cc(C#CC(C)(C)C)sc2C(=O)O)C(C)C)[C@H](C)C1 (single isomer, unassigned) [Example 1]	8	1.4	5.6	7.7	–	–	–
CC1=CC[C@H](C(=O)N(c2cc(C#CC(C)(C)C)sc2C(=O)O)C(C)C)CC1 [Example 6, (R)-5-(3,3-Dimethylbut-1-ynyl)-3-(N-isopropyl-4-methylcyclohex-3-enecarboxamido)thiophene-2-carboxylic acid]	7	1.3	11	14.3	8	40	–
CC(C)N(C(=O)[C@@H]1CC[C@@H](C)C[C@H]1C)c1cc(C#CC(C)(C)C)sc1C(=O)O [Comparative example 4, 5-(3,3-Dimethylbut-1-ynyl)-3-((1R,2R,4R)—N-isopropyl-2,4-dimethylcyclohexanecarboxamido)thiophene-2-carboxylic acid, reference compound]	8	3.6	40	144	–	–	–
CC1=CC[C@H](C(=O)N(c2cc(C#CC(C)(C)C)sc2C(=O)O)[C@H]2CC[C@H](O)CC2)CC1 [Example 8, 5-(3,3-Dimethylbut-1-ynyl)-3-((R)—N-((1r,4R)-4-hydroxycyclohexyl)-4-methylcyclohex-3-enecarboxamido)thiophene-2-carboxylic acid]	< 2.3	–	–	–	–	–	–
CC1=CC[C@@H](C(=O)N(c2cc(C#CC(C)(C)C)sc2C(=O)O)C(C)C)CC1 [Example 5, (S)-5-(3,3-Dimethylbut-1-ynyl)-3-(N-isopropyl-4-methylcyclohex-3-enecarboxamido)thiophene-2-carboxylic acid]	10	–	9.0	13.7	–	–	1.5
CC1=CC[C@@H](C(=O)N(c2cc(C#CC(C)(C)C)sc2C(=O)O)C(C)C)[C@@H](C)C1 [Example 4, 5-(3,3-dimethylbut-1-ynyl)-3-((1R,6S)—N-isopropyl-4,6-dimethylcyclohex-3-enecarboxamido)thiophene-2-carboxylic acid]	38	6.5	–	18.5	–	–	–
CC1=CC[C@@H](C(=O)N(c2cc(C#CC(C)(C)C)sc2C(=O)O)C(C)C)[C@H](C)C1 (single isomer, unassigned) [Example 2]	5	2.8	9.5	26.8	–	–	–
CC1=CC[C@H](C(=O)N(c2cc(C#CC(C)(C)C)sc2C(=O)O)[C@H]2CC[C@H](O)CC2)[C@@H](C)C1 [Example 7, 5-(3,3-Dimethylbut-1-ynyl)-3-((1S,6S)—N-((1r,4S)-4-hydroxycyclohexyl)-4,6-dimethylcyclohex-3-enecarboxamido)thiophene-2-carboxylic acid]	< 4.5	–	–	–	–	–	–
CC1=CC[C@H](C(=O)N(c2cc(C#CC(C)(C)C)sc2C(=O)O)C(C)C)[C@@H](C)C1 [Example 3, 5-(3,3-Dimethylbut-1-ynyl)-3-((1S,6S)—N-isopropyl-4,6-dimethylcyclohex-3-enecarboxamido)thiophene-2-carboxylic acid]	5	0.7	–	4.2	5	14	–
CC(C)(C)C#Cc1cc(N(C(=O)[C@H]2CC[C@H](C)CC2)[C@H]2CC[C@H](O)CC2)c(C(=O)O)s1 [Comparative example 2, 5-(3,3-Dimethylbut-1-ynyl)-3-((1r,4R)—N-((1r,4R)-4-hydroxycyclohexyl)-4-methylcyclohexanecarboxamido)thiophene-2-carboxylic acid, reference compound]	6	–	–	–	10	343	–
CC(C)N(c1cc(C#CC(C)(C)C)sc1C(=O)O)C(=O)[C@H]1CC[C@H](C)CC1 [Comparative example 1, 5-(3,3-Dimethylbut-1-ynyl)-3-((1r,4r)-N-isopropyl-4-methylcyclohexanecarboxamido)thiophene-2-carboxylic acid, reference compound]	26	1.7	16	2.78	26	293	–
CC(C)N(C(=O)[C@H]1CC[C@H](C)C[C@@H]1C)c1cc(C#CC(C)(C)C)sc1C(=O)O [Comparative example 3, 5-(3,3-Dimethylbut-1-ynyl)-3-((1S,2S,4S)—N-isopropyl-2,4-dimethylcyclohexanecarboxamido)thiophene-2-carboxylic acid, reference compound]	50	–	–	–	–	–	–
